# Key:
# [1] = system: M2-induced THP-1 macrophages; assay: Reprogramming of M2-polarized THP-1 macrophages, marker mRNA by qPCR; format: cell-based, human; conditions: 2 hours with compound, qPCR
# Procedure: THP-1 cells were seeded into 96-well plates at a density of 60,000 cells/well. Cells were differentiated into unpolarized macrophages by 48 hours incubation with 200 nM PMA followed by 24 hours incubation in fresh RPMI medium. […] Cultures were maintained at 37° C., in a humidified 5% CO2 incubator.
# Total RNA was isolated from 1×10^5-2×10^5 macrophages using a Quick-RNA™ MicroPrep kit (Zymo Research, Irvine, CA) according to the manufacturer-recommended protocol. The RNA samples were then reverse-transcribed into cDNA using high-capacity cDNA reverse transcription kits (Applied Biosystems, Foster City, CA; #4368814), qPCR analyses were performed using the iTaq™ Universal SYBR Green SuperMix (Bio-Rad Laboratories GmbH, Hercules, CA; #1725121), iCycler thermocycler, and iCycler iQ 3.0 software (Bio-Rad Laboratories GmbH, Hercules, CA) to track the expression of markers characteristic of macrophage polarization states, IL-6, CXCL10, IFNα, IFN-γ and CD86 were used as markers for an M1 phenotype, while CCL18. CD206, CD163 and Arg1 were employed as markers for the M2 phenotype, IL-1β, PDGFβ, MMP9 and TIMP 3 were measured as indicators of an anti-inflammatory phenotype. IRAK-4 was used as an indicator of TLR7 stimulation. To control for specificity of the amplification products, a melting curve analysis was performed. […] Each sample was analyzed independently in triplicate for each marker.
# In both data sets, the cells were harvested for gene analysis by qPCR.
# Primarily, human monocytic (THP-1) cells were induced to the M2-like phenotype using the methods and materials previously described. In particular, THP-1 cells were seeded into 96-well plates at a density of 60,000 cells/well. Cells were differentiated into unpolarized macrophages by 48 h incubation with 200 nM PMA followed by 24 hours incubation in fresh RPMI medium. The resulting macrophages were polarized to an M2-like phenotype by incubation with […] IL-4, 20 ng/ml […], and 5 ng/mL IL-6 for 48h. Cultures were maintained at 37° C. in a humidified 5% CO2 incubator.
# In addition to the nonconjugated TLR7 agonist, conjugated compounds of the present disclosure were likewise evaluated. Human THP-1 cells were induced to macrophages having the M2-like phenotype per the methods set forth herein (e.g., using 20 ng/mL IL-4, 20 ng/mL IL-13, 5 ng/mL IL-6), then reprogrammed with different nM concentrations of various compounds of the present disclosure for 2 hours; namely, a nonconjugated (free drug) TLR7 agonist compound having formula I and/or II (data shown collectively as Compound 3A), a folate-conjugated TLR7 agonist compound having formula XV (having a releasable linker) (e.g., Compound 3B), a folate-conjugated TLR7 agonist compound having formula XVII (having a non-releasable linker) (e.g., Compound 3C), and a folate-conjugated TLR7 agonist compound having formula XVI (having a non-releasable linker) (e.g., Compound 3D). The cells were subsequently harvested for gene analysis by qPCR and the relative expression of CCL18 (FIG. 14A), CD206 (FIG. 14B), and IL-1β (FIG. 14C) analyzed.
# [2] = system: M2-induced THP-1 macrophages; assay: Secreted CCL18 and IL-1β in THP-1 supernatants by ELISA; format: cell-based, human; conditions: low concentration range (0.1-10 nM), ELISA
# Procedure: FIGS. 6A-6D show graphical data representative of various marker levels measured from M2-induced THP-1 macrophages treated with different concentrations of drugs for 48 hours (FIGS. 6A and 6B) or for 2 hours, then displaced with fresh medium and cultured for the remaining 46 hours (FIGS. 6C and 6D). In both cases, cell supernatants were collected and secreted CCL18 protein and IL-1β was detected by ELISA.
# Further, to ensure that the above mRNA analyses accurately reflected the levels of anti-inflammatory cytokines produced by IL-4, IL-6 plus IL-13 stimulated THP-1 cells, the concentrations of CCL18 and IL-1β polypeptides in the THP-1 supernatants were quantitated by ELISA assay.
# CCL18 and IL-1β were quantified in induced THP-1 cell supernatants using a human DuoSet ELISA Development System (R&D Systems Europe, Abingdon, UK: #DY394-05) and an IL-1 beta Human ELISA Kit (Thermo Fisher Scientific, Waltham, MA; #BMS224-2) as described by manufactures. BALF samples were analyzed for mouse IFN-γ using ELISA MAX™ Deluxe (Biolegend, San Diego, CA; #430804).
# Additionally, cell supernatants were collected and secreted CCL18 protein was detected by ELISA.
# [3] = system: FRβ-expressing macrophages; assay: In vivo folate imaging with OTL38, resected organs; design: species or system C57BL/6 mice
# Procedure: (§1) To evaluate if anti-inflammatory lung macrophages in these mice can be specifically targeted with folate-linked drugs, 10 days after the instillation, 10 nmol (for in vivo imaging) or 100 nmol (for in vivo labeling) of a folate-linked, near infrared fluorescent dye (OTL38) with or without 200-fold excess of FA-glucosamine (a competitor of OTL38) was injected into the tail veins of BM-treated mice and the dye uptake in the major organs was evaluated.
# (§2) Finally, for the in vivo folate imaging studies, major organs (heart, lung, spleen, liver, small intestine, large intestine, and kidney) were resected and imaged using an AMI live imager (Spectral Instruments Imaging, Tucson, AZ). For in vivo folate receptor labeling studies, lungs of the mice were harvested immediately following euthanasia, digested with a lung dissociation kit (Miltenyi Biotec, Bergisch Gladbach, DE; #130-098-427) as described by gentleMACS Octo Dissociator with Heathers (Miltenyi Biotec, Bergisch Gladbach, DE; #130-096-427) as described by manual and filtered through a 70 μm cell strainer (Miltenyi Biotec, Bergisch Gladbach, DE: #130-098-462). Cells collected in the filtrate were depleted of erythrocytes by ammonium sulfate lysis, washed 2× in cold PBS and labeled for 30 min on ice with antibodies to desired macrophage markers (FITC-CD11b, Biolegend, San Diego, CA; #101205; FE-F4/80. Biolegend. San Diego, CA: #123109). Labeled macrophages were then washed twice in PBS, stained with 7AAD (viability stain) for 15 min and analyzed by flow cytometry using BD Accuri C6 Software (BD Biosciences, San Jose, CA).
# FIGS. 7C and 7D show FRβ IHC staining of human IPF lung tissue (FIG. 7C) and healthy human lung tissue (FIG. 7D). […] After 2 hours, mice were sacrificed prior to analysis. […] For in vivo folate receptor labeling studies, lungs of the mice were harvested immediately following euthanasia, digested and then labeled with antibodies to desired macrophages markers (FITC-CD11b, PE-F4/80) and 7AAD (live/dead staining) and analyzed by flow cytometry.
# [4] = system: FRβ positive macrophages; assay: In vivo folate receptor labeling with OTL38, flow cytometry of digested lungs; design: species or system C57BL/6 mice; conditions: fibrotic mice
# Procedure: as §1
# as §2, with “Cells collected in the filtrate were depleted of erythrocytes by ammonium sulfate lysis, washed 2× in cold PBS and labeled for 30 min on ice with antibodies to desired macrophage markers (FITC-CD11b, Biolegend, San Diego, CA; #101205; FE-F4/80. Biolegend. San Diego, CA: #123109).” left out, “CA). […]” for “CA).”
# [5] = system: BM-induced mice
# Procedure: Studies were also performed to determine if macrophages in pulmonary fibrotic lungs might be specifically targeted with folate-linked drugs in vivo. […] (The BM model is widely regarded to be helpful in terms of enabling mechanistic investigations relevant to fibrogenesis in an in vivo context.)
# More specifically, eight-week-old C57BL6 male mice from Charles River (average weight 22 g to 25 g) were housed under pathogen-free conditions at room temperature (22° C.) under a 12 hours light-dark cycle. Mice were placed on a folate deficient chow (Envigo Teklad Global Rat Food Pellets) for 1 week prior to the BM or PBS instillation. Fresh water and folate-deficient diet were freely available. All animal procedures were approved by the Purdue Animal Care and Use Committee in accordance with National Institute of Health guidelines.
# Thereafter, the mice were anesthetized with ketamine/xylazine and the necks of the mice were shaved using hair remover lotion and then sterilized with 70% alcohol. A small incision was made on the neck to visualize the trachea. Mice were positioned at a 75-degree angle and injected intratracheally with 100 μL sterile PBS or BM (Cayman Chemicals, Ann Arbor, MI; #13877) dissolved in PBS (0.75 mg/kg) using a 1 cc syringe with 26 G needle. Body weights were monitored every other day throughout the experiment.
# Lobes of the right lung collected above were weighed, placed in a pressure-tight vial (Supelco Inc., Bellefonte, PA; #27003), and hydrolyzed with 6N HCl (10 ml/g, v/w) in a sand bath at 120° C., for 3.5 hours. The hydrolyzed solution was cooled at 4° C., for 15 min and transferred to a 1.5 ml Eppendorf tube prior to centrifugation at 12,000 rcf for 15 min at 4° C. Supernatant was carefully collected, aliquoted and used for hydroxyproline (HYP) analysis.
# For the subsequent HYP analysis, 10 μl of sample was transferred into a 96-well plate and neutralized with 10 μl of 5.3 M sodium hydroxide solution. Isopropanol ([…]) was then added to each well followed by 20 μl of oxidation buffer and the mixture was incubated on a shaker at room temperature for 5 min. Analytical reagent (260 μl) was added, and the plate was incubated on a shaker at room temperature for 30 seconds and incubated immediately at 60° C., for 25 min. The absorbance was measured at 560 nm (A560) within 15 min. All reagents were prepared according to a previously reported protocol.
# For histological analysis of the lung sections, fixed lungs (see above) were embedded in paraffin, sectioned and stained with hematoxylin-eosin (H&E), Masson's trichrome or F3 (anti-mouse FRβ antibody). Tissue sections were examined in a blinded manner by a licensed pathologist. More than 90×10^6 cells were quantified per section using Aperio-Image Scope (Leica Biosystems, Wetzlar, DE).
# For this, BM-treated mice were intravenously injected every other day beginning on day 10 with either vehicle (3% DMSO in PBS) or Compound 1B (see FIG. 8A). […] In BM-induced experimental pulmonary fibrosis in mice, inflammation is known to persist for about 9-10 days after BM installation. Because, inflammation to fibrosis switch happens in this model approximately day 9 to day 14, and anti-inflammatory markers start appearing at about day 10, dosing began on day 10 (FIG. 8A).
# Two doses were given every other day till day 21. The individual doses on a day are separated by 6 hours to prevent any “tolerance” to TLR agonists. Mice were then sacrificed on day 21 and subjected immediately to bronchoalveolar lavage followed by resection of the lungs for immunohistochemistry and quantitation of collagen and hydroxyproline.
Compound,CCL18 relative expression [1],CD206 relative expression [1],IL-1β relative expression [1],reduction of anti-inflammatory markers relative to the other compounds [1],secretion of CCL18 protein [2],also measured
Nc1nc2ncc(CNc3ccc(C(=O)N[C@@H](CCC(=O)NCCOCCOCCOCCOCC4CCCN(CCNc5ccc(Cn6c(=O)[nH]c7c(N)nc(C(F)(F)F)cc76)cn5)C4)C(=O)O)cc3)nc2c(=O)[nH]1 (stereo partly drawn) [Compound 3D],reduced,reduced,reduced,most effective,downregulated,
OTL38,,,,,,"OTL38 accumulation in organs ([3]; BM-treated mice, day 10, 10 nmol tail vein, 2 h): pronounced accumulation in the fibrotic lungs; lung accumulation under competition ([3]; BM-treated mice, with 200-fold excess folate-glucosamine): nearly quantitative blockade of lung accumulation; OTL38 fluorescence in organs ([3]; healthy mice, 10 nmol tail vein, 2 h): only observed in the kidneys of healthy mice; macrophage-like cells with folate-targeted dye retention ([4]; 100 nmol OTL38): about 22%; folate-dye retention under competition ([4]; 100 nmol OTL38 with 200-fold excess folate-glucosamine): blocked essentially all folate-dye retention"
Nc1nc(C(F)(F)F)cc2c1[nH]c(=O)n2Cc1ccc(NCCN2CCCC(CO)C2)nc1 (stereo not drawn) [Compound 3A],,,,,downregulated,
Nc1nc2ncc(CNc3ccc(C(=O)N[C@@H](CCC(=O)NCCOCCOCCOCCOCCOCCOCCOCCOCCOCCOCCOCCOCCOCC4CCCN(CCNc5ccc(Cn6c(=O)[nH]c7c(N)nc(C(F)(F)F)cc76)cn5)C4)C(=O)O)cc3)nc2c(=O)[nH]1 (stereo partly drawn) [Compound 3C],reduced,reduced,reduced,most effective,downregulated,benefit to the subject mice ([5]; 3 nmol dosage): did not show measurable benefit; hydroxyproline (HP) ([5]; 10 nmol dosage): decreasing; number of BALF cells ([5]; 10 nmol dosage): decreasing; survival rates ([5]; 10 nmol dosage): increased the survival rates
Nc1nc2ncc(CNc3ccc(C(=O)NC(CCC(=O)N[C@@H](CSSCCOC(=O)OCC4CCCN(CCNc5ccc(Cn6c(=O)[nH]c7c(N)nc(C(F)(F)F)cc76)cn5)C4)C(=O)O)C(=O)O)cc3)nc2c(=O)[nH]1 (stereo partly drawn) [Compound 3B],reduced,reduced,reduced,,downregulated,
